The record followed here is US20260015357A1, “MODULATORS OF NLRP3 INFLAMMASOME AND RELATED PRODUCTS AND METHODS” (Neumora Therapeutics, Inc., priority 2022, published 2026).

Each structure is given as a SMILES string.

One assay concerns the target T1, NLRP3 inflammasome (Homo sapiens, UniProt Q96P20).
T1 construct: host or cells: THP1 human acute monocytic leukemia cells, PMA-differentiated, LPS-primed
Put plainly: NLRP3 inflammasome activation in LPS-primed, nigericin-activated THP1 macrophages, IL-1β AlphaLISA. The conditions noted are these: PMA-differentiated, 1 hr compound, Nigericin 6.7 uM 3 hrs, IL-1β in supernatant. The class given is cell-based. As to the method:
(§1) NLRP3 Inflammasome Activation and Cell Viability Assessment in THP1 Macrophages
(§2) THP1—Human acute monocytic leukemia cells were cultured (ATCC, cat #TIB-202) in Gibco RPMI-1640 medium (ThermoFisher cat #72400054) supplemented with 10% Heat Inactivated FBS at density between 3-8×10^5 viable cells/mi. The cells were then subcultured when the cell concentration reached 8×10^5 cells/mL (every 2-3 days).
(§3) The parameter wells were filled with 50 ul PBS and incubated at 37° C., 5% CO2 for 48 hrs.
(§4) After 48 hrs incubation, the PMA containing media was removed, and changed for 40 ul/well of fresh DMEM, 10% FBS, 1× GlutaMax and incubated at 37° C., 5% CO2 for 24 hrs.
(§5) The following day the cells were primed with LPS (E. coli) (Sigma, cat #L3129) […] in DMEM, 10% FBS, 1× GlutaMax for 3 hrs at 37° C., 5% CO2.
(§6) Following the LPS priming step, the cells were treated with compounds at 10 uM top final concentration, 1:4 dilution, 8 times: (10 uM, 2.5 uM, 0.625 uM, 0.156 uM, 0.039 uM, 0.0097 uM, 0.0024 uM, 0.0006 uM). DMSO was used as a vehicle control, and MCC950 (InvivoGen, cat #inh-mcc) was used at 1 uM as a positive control, and incubated for 1 hrs at 37° C., 5% CO2.
(§7) Following the 1 hr compound incubation, the NLRP3 inflammasome activation step was conducted by treating cells with Nigericin (InvivoGen, cat #tlrl-nig) at 6.7 uM final concentration for 3 hrs at 37° C., 5% CO2.
(§8) Thereafter, 30 ul samples of cells' supernatants were collected for cytokine analysis which was conducted on Hu IL-1β AlphaLISA (Perkin Elmer, cat #AL220C) and Hu IL-6 AlphaLISA (Perkin Elmer, cat #AL220C). The cells' viability was assessed by performing CellTiter-Glo Luminescent Assay (Promega, cat #G7572) according to the manufacturer's protocol.
For orientation: Alpha assays give light when donor and acceptor beads are brought close together.

For a further assay, the system named is IL-6. The experiment in a line: IL-6 in supernatants of LPS-primed, nigericin-treated THP1 macrophages, Hu IL-6 AlphaLISA. The conditions noted are these: Homo sapiens, THP-1, PMA-differentiated, 1 hr compound, Nigericin 6.7 uM 3 hrs, IL-6 in supernatant. The class given is cell-based. As to the method: as §1, §2, §3, §4, §5, §6, §7, §8

T1 sequence (Q96P20 whole entry): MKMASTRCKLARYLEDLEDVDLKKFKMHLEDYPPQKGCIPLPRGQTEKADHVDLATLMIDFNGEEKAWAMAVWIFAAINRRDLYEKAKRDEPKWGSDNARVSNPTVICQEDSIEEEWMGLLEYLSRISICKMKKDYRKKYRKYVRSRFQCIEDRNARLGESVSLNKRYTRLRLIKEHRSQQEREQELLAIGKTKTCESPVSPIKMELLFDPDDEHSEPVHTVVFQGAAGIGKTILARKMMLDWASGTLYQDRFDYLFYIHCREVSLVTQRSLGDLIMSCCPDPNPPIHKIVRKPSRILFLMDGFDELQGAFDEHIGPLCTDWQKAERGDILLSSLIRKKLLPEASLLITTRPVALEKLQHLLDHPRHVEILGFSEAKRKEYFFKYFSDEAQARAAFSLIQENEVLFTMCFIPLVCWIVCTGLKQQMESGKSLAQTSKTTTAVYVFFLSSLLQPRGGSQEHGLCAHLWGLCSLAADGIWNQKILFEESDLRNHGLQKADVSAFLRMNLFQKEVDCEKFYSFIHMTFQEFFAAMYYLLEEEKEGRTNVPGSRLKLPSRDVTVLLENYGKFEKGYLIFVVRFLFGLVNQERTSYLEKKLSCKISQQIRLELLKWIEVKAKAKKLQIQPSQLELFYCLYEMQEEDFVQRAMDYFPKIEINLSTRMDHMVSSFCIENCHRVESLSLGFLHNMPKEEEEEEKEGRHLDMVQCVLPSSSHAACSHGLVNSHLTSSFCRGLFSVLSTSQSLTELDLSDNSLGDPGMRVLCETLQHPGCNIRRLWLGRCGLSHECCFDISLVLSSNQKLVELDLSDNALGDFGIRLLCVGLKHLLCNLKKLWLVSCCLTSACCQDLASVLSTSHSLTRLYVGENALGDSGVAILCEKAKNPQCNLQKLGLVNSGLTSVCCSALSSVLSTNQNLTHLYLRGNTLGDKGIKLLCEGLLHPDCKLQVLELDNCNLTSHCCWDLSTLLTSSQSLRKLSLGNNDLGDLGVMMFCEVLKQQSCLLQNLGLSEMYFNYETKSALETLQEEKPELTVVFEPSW

Usually IC50 stands for the midpoint of a concentration-inhibition curve. `CN1CCC[C@@H](Nc2nnc(-c3ccc(F)cc3)c3cc[nH]c23)C1` [Compound 5]: the results for the IC50 at NLRP3 inflammasome and with IL-6 were 10 to 100 nM and 1 to 5 µM, respectively.

Turning to `CN1CCC[C@@H](Nc2nnc(-c3ccc(C(F)(F)F)cc3)c3ccsc23)C1` [Compound 61], the IC50 on NLRP3 inflammasome is 10 to 100 nM; in the assay on IL-6, not below 10 µM.

Regarding `CN1CCC[C@@H](Nc2nnc(-c3ccc(C(F)(F)F)cn3)c3ccn(C)c23)C1` [Compound 129], the IC50 is 100 to 500 nM on NLRP3 inflammasome and not below 10 µM in the assay on IL-6.

For `CN1CCC[C@@H](Nc2nnc(-c3ccc(C(F)(F)F)cc3)c3cnsc23)C1` [Compound 63, (R)—N-(1-methylpiperidin-3-yl)-4-(4-(trifluoromethyl)phenyl)isothiazolo[4,5-d]pyridazin-7-amine], the 50% inhibitory concentration (IC50) fell in the range of 10 to 100 nM against NLRP3 inflammasome and 5 to 10 µM in the assay on IL-6.

As to `CN1CCC[C@@H](N(C)c2nnc(-c3ccc(C(F)(F)F)cc3)c3[nH]ccc23)C1` [Compound 72], the IC50 against NLRP3 inflammasome is 1000 to 10000 nM; in the assay on IL-6 it was not below 10 µM.

Regarding `CCN1CCC[C@@H](Nc2nnc(-c3ccc(C#N)cc3O)c3ccn(C)c23)C1` [Compound 103], the values for the IC50 against NLRP3 inflammasome and with IL-6 were less than 10 nM and 5 to 10 µM, respectively.

For `Cc1cc2c(N[C@@H]3CCCN(C)C3)nnc(-c3ccc(C(F)(F)F)cc3)c2[nH]1` [Compound 75], the figures for the IC50 against NLRP3 inflammasome and with IL-6 were 1000 to 10000 nM and not below 10 µM, respectively.

For `CN1CCC[C@@H](N(C)c2nnc(-c3ccc(C#N)cc3O)c3ccn(C)c23)C1` [Compound 102], the results for the 50% inhibitory concentration (IC50) against NLRP3 inflammasome and in the assay with IL-6 were 500 to 1000 nM and not below 10 µM, respectively.

As for `Cc1cc2c(-c3ccc(C(F)(F)F)cc3)nnc(N[C@@H]3CCCN(C)C3)c2n1C` [Compound 101], the figures for the IC50 against NLRP3 inflammasome and in the assay with IL-6 were 10 to 100 nM and 5 to 10 µM, respectively.

For `CN1CCC[C@@H](N(C)c2nnc(-c3ccc(C(F)(F)F)cc3)c3ncn(C)c23)C1` [Compound 105], the IC50 at NLRP3 inflammasome was not below 10000 nM; with IL-6 it was not below 10 µM.

As for `CN1CCC[C@@H](Nc2nnc(-c3ccc(C(F)(F)F)cc3)c3sccc23)C1` [Compound 62], the values for the IC50 on NLRP3 inflammasome and with IL-6 were 10 to 100 nM and 1 to 5 µM, respectively.

For `CN1CCC[C@@H](Nc2nnc(-c3ncc(C(F)(F)F)cc3O)c3ccn(C)c23)C1` [Compound 168], the IC50 at NLRP3 inflammasome was 1000 to 10000 nM; in the assay with IL-6, not below 10 µM.

For `CN1CCC[C@@H](Nc2nnc(-c3ccc(C(F)(F)F)cc3)c3ncn(C)c23)C1` [Compound 30], the IC50 at NLRP3 inflammasome is 1000 to 10000 nM; in the assay with IL-6, not below 10 µM.

For `CN1CCC[C@@H](Nc2nnc(-c3ccc(C(F)(F)F)cc3)c3cc[nH]c23)C1` (single isomer, unassigned) [Compound 1], the results for the IC50 against NLRP3 inflammasome and in the assay on IL-6 were less than 10 nM and 1 to 5 µM, respectively.

Take `Cc1cc(C(F)(F)F)ccc1-c1nnc(N[C@@H]2CCCN(C)C2)c2cc[nH]c12` [Compound 3]: the IC50 against NLRP3 inflammasome is 500 to 1000 nM; in the assay with IL-6, not below 10 µM.

`CN1CCC[C@@H](Nc2nnc(-c3ccc(Cl)cc3C(F)F)c3ccn(C)c23)C1` [Compound 121]: the half-maximal inhibitory concentration (IC50) is 10 to 100 nM at NLRP3 inflammasome and not below 10 µM in the assay on IL-6.

Turning to `Cc1cc(C#N)ccc1-c1nnc(N[C@@H]2CCCN(C)C2)c2c1cnn2C` [Compound 112], the half-inhibitory concentration (IC50) at NLRP3 inflammasome was 10 to 100 nM; with IL-6, not below 10 µM.

Regarding `CN1CCC[C@@H](Oc2nnc(-c3ccc(F)cc3O)c3cc[nH]c23)C1` [Compound 90], the IC50 is 100 to 500 nM on NLRP3 inflammasome and not below 10 µM in the assay with IL-6.

For the compound `CN1CCC[C@@H](N(C)c2nnc(-c3ccc(C(F)(F)F)cc3)c3cc[nH]c23)C1` [Compound 25], the IC50 is 100 to 500 nM on NLRP3 inflammasome and not below 10 µM in the assay on IL-6.

As to `CN1CCC[C@@H](Oc2nnc(-c3ccc(F)cc3O)c3ccsc23)C1` [Compound 86], the IC50 at NLRP3 inflammasome is 100 to 500 nM; in the assay on IL-6 it was not below 10 µM.

Regarding `CN1CCC[C@@H](Nc2nnc(-c3ccc(C#N)cc3)c3ccn(C)c23)C1` [Compound 79], the IC50 on NLRP3 inflammasome was 100 to 500 nM; in the assay on IL-6, not below 10 µM.

For `CN1CCC[C@@H](N(C)c2nnc(-c3ccccc3O)c3cc[nH]c23)C1` (single isomer, unassigned) [Compound 24], the IC50 against NLRP3 inflammasome was 100 to 500 nM; in the assay with IL-6 it was 5 to 10 µM.
